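1) Cells in 96-well plates. 2) Compound, 48 h, 5 concentrations. 3) Linear interpolation between surrounding doses. 4) Unreached endpoint = highest concentration. GI50 marks 50% less growth. TGI denotes the concentration required for complete inhibition of growth.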
Legend:
Assay in all cases: NCI-60 cell line screen, 48 h
U251 CNS = test system: U251 CNS
EKVX NSCLC = test system: EKVX NSCLC
ACHN renal = test system: ACHN renal
786-0 renal = test system: 786-0 renal
IGROV1 ovarian = test system: IGROV1 ovarian
SK-MEL-5 melanoma = test system: SK-MEL-5 melanoma
RPMI-8226 leukemia = test system: RPMI-8226 leukemia
HCT-15 colon = test system: HCT-15 colon
PC-3 prostate = test system: PC-3 prostate
HS 578T breast = test system: HS 578T breast

Row | Structure (SMILES) | TGI (U251 CNS) | TGI (EKVX NSCLC) | TGI (ACHN renal) | TGI (786-0 renal) | TGI (IGROV1 ovarian) | TGI (SK-MEL-5 melanoma) | TGI (RPMI-8226 leukemia) | TGI (HCT-15 colon) | TGI (PC-3 prostate) | TGI (HS 578T breast) | GI50 (U251 CNS) | GI50 (IGROV1 ovarian) | GI50 (SK-MEL-5 melanoma) | GI50 (RPMI-8226 leukemia) | GI50 (HCT-15 colon) | GI50 (PC-3 prostate)
1 | O=S(=O)(c1ccc(-c2nnc(-c3ccc(F)cc3)o2)cc1)c1ccc(-c2nnc(-c3ccc(F)cc3)o2)cc1 | > 100 µM | > 100 µM | 46.8 µM | > 100 µM | > 100 µM | > 100 µM | > 100 µM | > 100 µM | > 100 µM |  |  |  |  |  |  | 
2 | O=NN(CCF)C(=O)NC1CC2CCC1C2 (centres undefined) | > 100 µM | > 100 µM |  |  | > 100 µM | > 100 µM | > 87.7 µM | > 100 µM |  |  |  |  |  |  |  | 
3 | Nc1cccc(S(=O)(=O)Nc2nnc(S(N)(=O)=O)s2)c1 | > 100 µM | > 100 µM | > 100 µM | > 100 µM | > 100 µM | > 100 µM | > 100 µM | > 100 µM | > 100 µM |  |  |  |  |  |  | 
4 | CN(C)CCNC(=O)c1cccc2cc3cc(O)ccc3nc12 | 4.46 µM | 5.24 µM |  |  | 4.43 µM | 2.48 µM | 5.46 µM | 6.53 µM |  |  |  |  |  |  |  | 
5 | CCOC(=O)C(C)Sc1nnc(COc2ccccc2OC)n1-c1ccccc1 (centres undefined) | > 100 µM | > 100 µM | > 100 µM | > 100 µM | > 100 µM | > 100 µM | 59.9 µM | 30.6 µM |  |  |  |  |  |  |  | 
6 | O=C1Nc2cc([N+](=O)[O-])c(Br)cc2C1=O |  | 47.4 µM | 35.3 µM | 35.8 µM | 32.7 µM | 60.7 µM | 43.3 µM | 37.1 µM |  |  |  |  |  |  |  | 
7 | CC1(C)CC2(C)CC1CC2(O)c1ccccc1 (centres undefined) | > 100 µM |  | > 100 µM | > 100 µM | > 100 µM | > 100 µM |  |  | > 100 µM | > 100 µM |  |  |  |  |  | 
8 | CCCc1c(C(=O)OCC)[nH]c(-c2ccc(-c3[nH]c(C(=O)OCC)c(CCC)c3C(=O)OCC)s2)c1C(=O)OCC | > 100 µM | > 100 µM | > 100 µM | > 100 µM | > 100 µM | > 100 µM | > 100 µM | > 100 µM |  |  |  |  |  |  |  | 
9 | [O-][n+]1c(CN2CCCCC2)nc2cccc3c2c1-c1ccccc1-3 | > 100 µM | 49.2 µM | 70.5 µM | 51.5 µM | > 100 µM | 32.1 µM | > 100 µM | > 100 µM | > 100 µM |  |  |  |  |  |  | 
10 | CN1CN(c2ccccc2)C2(CCN(CCCCCCF)CC2)C1=O | > 100 µM | > 100 µM | > 100 µM | > 100 µM | > 100 µM | > 100 µM | > 100 µM | > 100 µM | > 100 µM |  |  |  |  |  |  | 
11 | Cc1ccc(-n2cc(-c3ccc(Cl)cc3)c3c(NN)ncnc32)cc1 | 15.6 µM | 9.99 µM | 14.3 µM | 11.1 µM | 11.2 µM | 7.23 µM |  | 26.1 µM | 56.1 µM |  |  |  |  |  |  | 
12 | Cc1cn(C2CC(CCCO)C(CO)O2)c(=O)[nH]c1=O (centres undefined) | > 100 µM | > 100 µM | > 100 µM | > 100 µM | > 100 µM | > 100 µM | > 100 µM | > 100 µM |  |  |  |  |  |  |  | 
13 | CC1(C)C2CCC3(OCCO3)C1C(O)C2 (centres undefined) | > 100 µM | > 100 µM | > 100 µM | > 100 µM | > 100 µM | > 100 µM | > 100 µM | > 100 µM |  |  |  |  |  |  |  | 
14 | CCSCN(C)c1nc(N(C)C)nc(N(C)C)n1 | > 100 µM | > 100 µM | > 100 µM | > 100 µM | > 100 µM | > 100 µM | > 100 µM | > 100 µM |  |  |  |  |  |  |  | 
15 | COC(=O)c1c(C)cccc1C1CN=NC12Cc1ccc(C)c(C)c1C2=O (centres undefined) | > 100 µM | 82.5 µM | > 100 µM | > 100 µM | > 100 µM |  | > 100 µM | > 100 µM |  | > 100 µM |  |  |  |  |  | 
16 | COc1cc(C2C(Cl)C(=O)N2NC(=O)c2ccc(NC(C)=O)cc2)ccc1O (centres undefined) | > 100 µM | > 100 µM | > 100 µM | > 100 µM | > 100 µM | > 100 µM | > 100 µM | > 100 µM |  |  |  |  |  |  |  | 
17 | Cc1ccc(N(O)C(C)(C)C)cc1 | > 100 µM | > 100 µM |  |  | > 100 µM | > 100 µM | > 100 µM | > 100 µM |  |  |  |  |  |  |  | 
18 | C=C(C)C1CC/C(C)=C/CC[C@]2(C)O[C@@H]2CCC2=CC1OC2=O (some centres undefined) | > 100 µM |  |  |  | > 100 µM | > 100 µM | 22.2 µM | > 100 µM | > 100 µM |  | 21.7 µM | 50.4 µM | 78.8 µM | 10.5 µM | 42.3 µM | 48.9 µM

— PubChem BioAssay (NCI)
